Results as given in patent US8399681B2, “Substituted aminothiazolone indazoles as estrogen related receptor-alpha modulators” (Janssen Pharmaceutica NV, priority 2009, dated 2013).
pEC50: −log10 of the molar value.

What was measured:
[1] = target: T1, ERR1 (also known as ERR-α or ERR-1) (Homo sapiens, UniProt P11474); test: TR-FRET assay (disruption of co-activator peptide binding); format: biochemical; conditions: 6His-tagged ERR1 LBD, GST-hSRC2 co-activator polypeptide; average of 3 independent experiments
T1 sequence (P11474 193-421 limits assumed): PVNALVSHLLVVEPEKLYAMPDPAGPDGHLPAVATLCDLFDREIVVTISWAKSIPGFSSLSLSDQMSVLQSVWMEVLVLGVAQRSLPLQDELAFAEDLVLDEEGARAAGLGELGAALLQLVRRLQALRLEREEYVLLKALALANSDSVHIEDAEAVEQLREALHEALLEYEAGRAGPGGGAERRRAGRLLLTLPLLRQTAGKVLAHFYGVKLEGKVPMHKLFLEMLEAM
Method in brief: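 Compound-induced loss of co-activator recruitment, read by time-resolved FRET (excitation 340 nm; 615 and 665 nm emission) after 4-18 h at 25 °C. Reagents: 6 nM ERR1LBD, 6 nM GST-SRC-2, 30 nM Eu cryptate, 7.5 nM XL665, pH 8 Tris buffer. Values: hyperbolic fits averaged over 3 independent runs.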

[2] = tested on: Zucker fa/fa male rats; test: Zucker fa/fa Rat Model Assay; format: in vivo; conditions: dosed orally once a day for 4 days, blood collected at day 5
From the text: Zucker fa/fa is a monogenic model of frank diabetes due to a mutation on the fa gene truncating the leptin receptor and preventing its interaction with its peptide hormone. This mutation results in a hyperphagic phenotype and the rodent develops obesity, hyperlipidemia, fasting hyperglycemia and insulin resistance. Zucker fa/fa male rats were received at four weeks of age and allowed to acclimate for one week. At five weeks of age the animals were single housed in cages in a temperature-controlled room with 12-hour light/dark cycle. The rats were allowed ad libitum access to water and food and throughout the study were maintained on a Purina 5008 diet. Animals were sorted based primarily on fed insulin levels and circulating triglycerides. Animals were dosed orally once a day in the morning for 4 days. The vehicle used was either 20% HPβCD (Hydroxypropyl Beta Cyclodextrin) or 15% Vitamin E/30% PEG-400 (Polyethylene Glycol 400). Fed insulin and triglycerides were measured using blood collected from the tail vein at day 5. Serum plasma samples were prepared by centrifugation in EDTA (Ethylenediaminetetraacetic acid) containing tubes, transferred into 96 well plates and stored at −80° C.

Row | Structure (SMILES) | pEC50 [1] | % Lowering Fed Insulin Levels [2] [%] | % Lowering Fed Triglyceride Levels [2] [%]
1 | O=C1N=C(N2CC(C(=O)O)C2)S/C1=C\c1ccc2c(cnn2Cc2ccc(Cl)cc2C(F)(F)F)c1 [Example 40, 1-{5-[1-(4-Chloro-2-trifluoromethyl-benzyl)-1H-indazol-5-ylmethylene]-4-oxo-4,5-dihydro-thiazol-2-yl}-azetidine-3-carboxylic acid] | 8.10 | 75 | 60
2 | N[C@H]1CCCN(C2=NC(=O)/C(=C/c3ccc4c(cnn4Cc4ccc(C(F)(F)F)cc4C(F)(F)F)c3)S2)C1 [Example 52, 2-(3-(S)-Amino-piperidin-1-yl)-5-[1-(2,4-bis-trifluoromethyl-benzyl)-1H-indazol-5-ylmethylene]-thiazol-4-one] | 8.35 | 86 | 55
3 | O=C1N=C(N2CCCNCC2)S/C1=C\c1ccc2c(cnn2Cc2ccc(Cl)cc2C(F)(F)F)c1 [Example 54, 5-[1-(4-Chloro-2-trifluoromethyl-benzyl)-1H-indazol-5-ylmethylene]-2-[1,4]diazepan-1-yl-thiazol-4-one] | 7.88 | 60 | 27
4 | COCCN1CCN(C2=NC(=O)/C(=C/c3ccc4c(cnn4Cc4ccc(Cl)cc4C(F)(F)F)c3)S2)CC1 [Example 56, 5-[1-(4-Chloro-2-trifluoromethyl-benzyl)-1H-indazol-5-ylmethylene]-2-[4-(2-methoxy-ethyl)-piperazin-1-yl]-thiazol-4-one] | 7.80 | 70 | 68
5 | N[C@@H]1CCN(C2=NC(=O)/C(=C/c3ccc4c(cnn4Cc4ccc(Cl)cc4C(F)(F)F)c3)S2)C1 [Example 62, 2-(3-(R)-Amino-pyrrolidin-1-yl)-5-[1-(4-chloro-2-trifluoromethyl-benzyl)-1H-indazol-5-ylmethylene]-thiazol-4-one] | 7.76 | 48 | 36
6 | O=C1N=C(N2CCC[C@H]2CN2CCCC2)S/C1=C\c1ccc2c(cnn2Cc2ccc(Cl)cc2C(F)(F)F)c1 [Example 64, 5-[1-(4-Chloro-2-trifluoromethyl-benzyl)-1H-indazol-5-ylmethylene]-2-(S)-(2-pyrrolidin-1-ylmethyl-pyrrolidin-1-yl)-thiazol-4-one] | 7.60 | 46 | 51
7 | O=C1N=C(N2C[C@@H]3C[C@H]2CN3CCO)S/C1=C\c1ccc2c(cnn2Cc2ccc(C(F)(F)F)cc2C(F)(F)F)c1 [Example 71, 5-[1-(2,4-Bis-trifluoromethyl-benzyl)-1H-indazol-5-ylmethylene]-2-[5-(2-hydroxy-ethyl)-2S,5S-diaza-bicyclo[2.2.1]hept-2-yl]-thiazol-4-one] | 7.79 | 37 | 25
8 | CN(C)C(=O)CN1CCN(C2=NC(=O)/C(=C/c3ccc4c(cnn4Cc4ccc(Cl)cc4C(F)(F)F)c3)S2)CC1 [Example 72, 2-(4-{5-[1-(4-Chloro-2-trifluoromethyl-benzyl)-1H-indazol-5-ylmethylene]-4-oxo-4,5-dihydro-thiazol-2-yl}-piperazin-1-yl)-N,N-dimethyl-acetamide] | 7.88 | 62 | 57
9 | NC1CN(C2=NC(=O)/C(=C/c3ccc4c(cnn4Cc4ccc(Cl)cc4C(F)(F)F)c3)S2)C1 [Example 98, 2-(3-Amino-azetidin-1-yl)-5-[1-(4-chloro-2-trifluoromethyl-benzyl)-1H-indazol-5-ylmethylene]-thiazol-4-one] | 7.82 | 51 | 22
10 | O=C1N=C(N2CCNCC(O)C2)S/C1=C\c1ccc2c(cnn2Cc2ccc(Cl)cc2C(F)(F)F)c1 (centres unmarked) [Example 125, 5-[1-(4-Chloro-2-trifluoromethyl-benzyl)-1H-indazol-5-ylmethylene]-2-(6-hydroxy-[1,4]diazepan-1-yl)-thiazol-4-one] | 8.00 | 30 | –
11 | O=C1N=C(N2CCN[C@@H](CO)C2)S/C1=C\c1ccc2c(cnn2Cc2ccc(C(F)(F)F)cc2C(F)(F)F)c1 [Example 139, 5-[1-(2,4-Bis-trifluoromethyl-benzyl)-1H-indazol-5-ylmethylene]-2-(3-(R)-hydroxymethyl-piperazin-1-yl)-thiazol-4-one] | 7.80 | 82 | 58
12 | O=C1N=C(N2CCO[C@H](CO)C2)S/C1=C\c1ccc2c(cnn2Cc2ccc(C(F)(F)F)cc2C(F)(F)F)c1 [Example 140, 5-[1-(2,4-Bis-trifluoromethyl-benzyl)-1H-indazol-5-ylmethylene]-2-((2S)-hydroxymethyl-morpholin-4-yl)-thiazol-4-one] | 7.72 | 59 | 67
13 | O=C1N=C(N2CCOC[C@H]2CO)S/C1=C\c1ccc2c(cnn2Cc2ccc(C(F)(F)F)cc2C(F)(F)F)c1 [Example 141, 5-[1-(2,4-Bis-trifluoromethyl-benzyl)-1H-indazol-5-ylmethylene]-2-(3(R)-hydroxymethyl-morpholin-4-yl)-thiazol-4-one] | 7.43 | 49 | 76
14 | O=C1N=C(N2CCOC[C@H]2CO)S/C1=C\c1ccc2c(cnn2Cc2ccc(Cl)cc2C(F)(F)F)c1 [Example 142, 5-[1-(4-Chloro-2-trifluoromethyl-benzyl)-1H-indazol-5-ylmethylene]-2-(3(R)-hydroxymethyl-morpholin-4-yl)-thiazol-4-one] | 7.70 | 63 | 55
15 | O=C1N=C(N2CCN[C@@H](CO)C2)S/C1=C\c1ccc2c(c1)c(Cl)nn2Cc1ccc(C(F)(F)F)cc1C(F)(F)F [Example 186, 5-[1-(2,4-Bis-trifluoromethyl-benzyl)-3-chloro-1H-indazol-5-ylmethylene]-2-(3-(R)-hydroxymethyl-piperazin-1-yl)-thiazol-4-one] | 8.30 | 75 | 56
16 | O=C1N=C(N2CCOC(C(=O)O)C2)S/C1=C\c1ccc2c(cnn2Cc2ccc(C(F)(F)F)cc2C(F)(F)F)c1 (centres unmarked) [Example 188, 4-[5-({1-[2,4-Bis(trifluoromethyl)benzyl]-1H-indazol-5-yl}methylidene)-4-oxo-4,5-dihydro-1,3-thiazol-2-yl]morpholine-2-carboxylic acid] | 7.71 | 81 | 59
17 | O=C1N=C(N2CCc3c(O)noc3C2)S/C1=C\c1ccc2c(cnn2Cc2ccc(Cl)cc2C(F)(F)F)c1 [Example 197, 5-({1-[4-Chloro-2-(trifluoromethyl)benzyl]-1H-indazol-5-yl}methylidene)-2-(3-hydroxy-4,7-dihydroisoxazolo[5,4-c]pyridin-6(5H)-yl)-1,3-thiazol-4(5H)-one] | 7.54 | 27 | 2
18 | O=C(O)C1=CCN(C2=NC(=O)/C(=C/c3ccc4c(cnn4Cc4ccc(Cl)cc4C(F)(F)F)c3)S2)CC1 [Example 198, 1-[5-({1-[4-Chloro-2-(trifluoromethyl)benzyl]-1H-indazol-5-yl}methylidene)-4-oxo-4,5-dihydro-1,3-thiazol-2-yl]-1,2,3,6-tetrahydropyridine-4-carboxylic acid] | 7.82 | 35 | 21
19 | COC(=O)N[C@@H]1C[C@H](CO)N(C2=NC(=O)/C(=C/c3ccc4c(cnn4Cc4ccc(C(F)(F)F)cc4C(F)(F)F)c3)S2)C1 [Example 213, Methyl {1-[5-({1-[2,4-bis(trifluoromethyl)benzyl]-1H-indazol-5-yl}methylidene)-4-oxo-4,5-dihydro-1,3-thiazol-2-yl]-5-(R)-(hydroxymethyl)pyrrolidin-3-(R)-yl}carbamate] | 7.68 | 42 | 30
